The structures appear in SMILES notation.

The experiment deals with ATF4 luciferase reporter in HEK293T cells. Description: ATF4-Luc assay (ATF4 luciferase reporter, tunicamycin-treated HEK293T cells). The experiment is classed as cell-based, human. The note with it: Homo sapiens, HEK-293T; HEK293T cells carrying the ATF4 luciferase reporter, 1 μg/mL tunicamycin, 7 hours. On the technique in general: In a reporter assay the amount or activity of a reporter protein is the signal.
As a reminder, the EC50 is the midpoint of the concentration-response curve. As to `O=C(COc1ccc(Cl)c(F)c1)NC12CCC(OCc3ccc(Cl)cc3)(CC1)CC2O` (stereo not drawn) [Compound 565, 2-(4-chloro-3-fluorophenoxy)-N-{4-[(4-chlorophenyl)methoxy]-2-hydroxybicyclo[2.2.2]octan-1-yl}acetamide], the EC50 was in the range of 0.5 to 2 µM.

On to `CC(C)(O)C1CC2(NC(=O)COc3ccc(Cl)c(F)c3)CCC1(NC(=O)COc1ccc(Cl)c(F)c1)CC2` (stereo not drawn) [Compound 566, N,N′-[2-(2-hydroxypropan-2-yl)bicyclo[2.2.2]octane-1,4-diyl]bis[2-(4-chloro-3-fluorophenoxy)acetamide]], for which the half-maximal effective concentration (EC50) was 0.01 to 0.05 µM. For the compound `O=C(COc1ccc(Cl)c(F)c1)NC12CCC(OCc3ccccc3)(CC1)CC2O` (stereo not drawn) [Compound 567, N-[4-(benzyloxy)-2-hydroxybicyclo[2.2.2]octan-1-yl]-2-(4-chloro-3-fluorophenoxy)acetamide], the EC50 was 0.5 to 2 µM. In the case of `O=C(COc1ccc(Cl)c(F)c1)NC12CCC(NC(=O)COc3ccc(Cl)c(F)c3)(CC1)C(CO)C2` (stereo not drawn) [Compound 568, N,N′-[2-(hydroxymethyl)bicyclo[2.2.2]octane-1,4-diyl]bis[2-(4-chloro-3-fluorophenoxy)acetamide]], the half-maximal effective concentration (EC50) was less than 0.01 µM. For the compound `COC(=O)C1CC2(NC(=O)COc3ccc(Cl)c(F)c3)CCC1(NC(=O)COc1ccc(Cl)c(F)c1)CC2` (stereo not drawn) [Compound 569, methyl 1,4-bis[2-(4-chloro-3-fluorophenoxy)acetamido]bicyclo[2.2.2]octane-2-carboxylate], the EC50 is less than 0.01 µM. As to `O=C(COc1ccc(Cl)c(F)c1)NC12CCC(NC(=O)COc3cc(F)c(Cl)cc3Br)(CC1)C(Br)C2=O` (stereo not drawn) [Compound 570, 2-(2-bromo-4-chloro-5-fluorophenoxy)-N-{2-bromo-4-[2-(4-chloro-3-fluorophenoxy)acetamido]-3-oxobicyclo[2.2.2]octan-1-yl}acetamide], the EC50 lay in the range of 0.05 to 0.25 µM.

As to `O=C(COc1ccc(Cl)c(F)c1)NC12CCC(NC(=O)COc3ccc(Cl)c(F)c3)(CC1)C(Br)C2=O` (stereo not drawn) [Compound 572, N,N′-(2-bromo-3-oxobicyclo[2.2.2]octane-1,4-diyl)bis[2-(4-chloro-3-fluorophenoxy)acetamide]], the half-maximal effective concentration (EC50) lay in the range of 0.01 to 0.05 µM. In the case of `O=C(COc1ccc(Cl)c(F)c1)NC1CCC2(NC(=O)COc3ccc(Cl)c(F)c3)CCC1C2` (stereo not drawn) [Compound 573, N,N′-(bicyclo[3.2.1]octane-1,4-diyl)bis[2-(4-chloro-3-fluorophenoxy)acetamide]], the EC50 was less than 0.01 µM. Next, `O=C(COc1ccc(Cl)c(O)c1)NC12CCC(NC(=O)COc3ccc(Cl)c(F)c3)(CC1)[C@@H](O)C2` [Compound 574, 2-(4-chloro-3-fluorophenoxy)-N-{(2S)-4-[2-(4-chloro-3-hydroxyphenoxy)acetamido]-2-hydroxybicyclo[2.2.2]octan-1-yl}acetamide]: less than 0.01 µM. As to `Cc1cnc(OCC(=O)NC23CCC(NC(=O)COc4ccc(Cl)c(F)c4)(CC2)[C@@H](O)C3)s1` [Compound 575, 2-(4-chloro-3-fluorophenoxy)-N-[(2S)-2-hydroxy-4-{2-[(5-methyl-1,3-thiazol-2-yl)oxy]acetamido}bicyclo[2.2.2]octan-1-yl]acetamide], the EC50 is greater than 2 µM. For `O=C(COc1ccc(Cl)c(F)c1)NC12CCC(NC(=O)NCc3ccc(Cl)c(F)c3)(CC1)C[C@@H]2O` [Compound 576, 2-(4-chloro-3-fluorophenoxy)-N-[(2S)-4-({[(4-chloro-3-fluorophenyl)methyl]carbamoyl}amino)-2-hydroxybicyclo[2.2.2]octan-1-yl]acetamide], the EC50 lay within 0.01 to 0.05 µM. On to `O=C(COc1nccs1)NC12CCC(NC(=O)COc3ccc(Cl)c(F)c3)(CC1)[C@@H](O)C2` [Compound 577, 2-(4-chloro-3-fluorophenoxy)-N-[(2S)-2-hydroxy-4-{2-[(1,3-thiazol-2-yl)oxy]acetamido}bicyclo[2.2.2]octan-1-yl]acetamide], for which the EC50 was greater than 2 µM.
